In article PMC5958064, “Single cell analysis of kynurenine and System L amino acid transport in T cells” (Nature Communications, 2018):
Blank lines part the entries; values can stand above or below the compound they belong to.

What was measured:
[1] = system: AHR; design: method as in PMID 25657351, PMID 29279331; conditions: cited from earlier work
[2] = system: AHR; assay: Cyp1a1 mRNA induction in TH17cond CD4+ T cells (qPCR); type: cell-based, mouse
Procedure: To activate primary T cells, spleens and/or lymph nodes (LN) were removed, disaggregated and red blood cells lysed. Cells were stimulated with 1 μg/ml of the CD3 monoclonal antibody (2C11) and 2 μg/ml anti-CD28 (37.51; ebiosciences) to trigger the TCR. Naive CD4^+ T cells and 24 h TCR-activated CD4^+ T cells were purified using CD4 isolation kit (EasySep, STEMCELL Technologies). […] Proleukin, Novartis) for a further 3–5 days. To generate TH1s and TH17s, murine CD8^+ T cells were depleted from lymph node preparations using CD8 depletion kit (EasySep, STEMCELL Technologies). […] RnD Systems) and IL-2 (20 ng/ml) and for TH17s; cytokines IL-6 (50 ng/ml, Peprotech), IL-1β (10 ng/ml, Peprotech) and TGFβ (2 ng/ml, Peprotech). TH17s were cultured in IMDM (Gibco). All other cells were cultured in RPMI 1640 containing L-glutamine (Gibco). Culture media was supplemented with 10% FBS (Gibco), 50 μM β-mercaptoethanol (β-ME, Sigma) and penicillin/streptomycin (Gibco). Cells were incubated at 37 °C with 5% CO2 throughout. […] RNA was purified using the RNeasy RNA purification Mini Kit (Qiagen) (Genomic DNA was digested with RNase-free DNase (Qiagen) following manufacturer instructions) and reverse-transcribed using the iScript cDNA synthesis kit (BioRad). Quantitative PCR was performed in 96-well plate format using iQ SYBR Green-based detection (BioRad) on a BioRad iCycler.

[3] = biological target: T1, System L transporter SLC7A5 (Mus musculus, UniProt Q9Z127); assay: Radiolabelled 3H-kynurenine uptake in T cells; type: cell-based; conditions: compared with kynurenine Km ~200 μM
T1 construct: endogenous in cells
T1 sequence (Q9Z127 whole entry): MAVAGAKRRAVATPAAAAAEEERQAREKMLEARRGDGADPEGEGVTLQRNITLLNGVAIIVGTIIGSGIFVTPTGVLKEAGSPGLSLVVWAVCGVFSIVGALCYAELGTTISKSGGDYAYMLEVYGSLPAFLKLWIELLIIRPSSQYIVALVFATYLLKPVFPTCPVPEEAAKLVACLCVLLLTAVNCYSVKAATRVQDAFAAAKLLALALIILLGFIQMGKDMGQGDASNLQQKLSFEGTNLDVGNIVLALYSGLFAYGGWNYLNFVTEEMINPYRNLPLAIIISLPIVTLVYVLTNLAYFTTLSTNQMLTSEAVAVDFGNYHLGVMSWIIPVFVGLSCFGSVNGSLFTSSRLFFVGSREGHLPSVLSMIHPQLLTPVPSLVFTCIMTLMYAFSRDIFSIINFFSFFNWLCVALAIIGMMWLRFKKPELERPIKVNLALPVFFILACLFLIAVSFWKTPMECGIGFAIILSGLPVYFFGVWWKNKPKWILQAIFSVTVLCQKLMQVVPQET
T1 sequence (P10852 whole entry partner): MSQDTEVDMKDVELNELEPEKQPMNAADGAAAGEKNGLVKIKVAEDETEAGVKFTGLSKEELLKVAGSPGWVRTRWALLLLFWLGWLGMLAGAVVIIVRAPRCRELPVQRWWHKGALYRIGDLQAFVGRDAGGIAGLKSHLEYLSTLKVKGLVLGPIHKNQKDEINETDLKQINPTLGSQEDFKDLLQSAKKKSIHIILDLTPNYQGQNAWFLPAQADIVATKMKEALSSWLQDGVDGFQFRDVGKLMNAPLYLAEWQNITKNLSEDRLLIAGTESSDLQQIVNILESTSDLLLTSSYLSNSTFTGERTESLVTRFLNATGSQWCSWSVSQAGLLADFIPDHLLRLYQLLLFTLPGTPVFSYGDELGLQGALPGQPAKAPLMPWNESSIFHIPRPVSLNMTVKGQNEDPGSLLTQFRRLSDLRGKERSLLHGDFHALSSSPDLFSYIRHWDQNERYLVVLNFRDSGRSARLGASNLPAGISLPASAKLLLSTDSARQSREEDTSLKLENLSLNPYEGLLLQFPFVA
Procedure: To activate primary T cells, spleens and/or lymph nodes (LN) were removed, disaggregated and red blood cells lysed. Cells were stimulated with 1 μg/ml of the CD3 monoclonal antibody (2C11) and 2 μg/ml anti-CD28 (37.51; ebiosciences) to trigger the TCR. Naive CD4^+ T cells and 24 h TCR-activated CD4^+ T cells were purified using CD4 isolation kit (EasySep, STEMCELL Technologies). […] Proleukin, Novartis) for a further 3-5 days. To generate TH1s and TH17s, murine CD8^+ T cells were depleted from lymph node preparations using CD8 depletion kit (EasySep, STEMCELL Technologies). […] RnD Systems) and IL-2 (20 ng/ml) and for TH17s; cytokines IL-6 (50 ng/ml, Peprotech), IL-1β (10 ng/ml, Peprotech) and TGFβ (2 ng/ml, Peprotech). TH17s were cultured in IMDM (Gibco). All other cells were cultured in RPMI 1640 containing L-glutamine (Gibco). Culture media was supplemented with 10% FBS (Gibco), 50 μM β-mercaptoethanol (β-ME, Sigma) and penicillin/streptomycin (Gibco). Cells were incubated at 37 °C with 5% CO2 throughout. […] Cells were pelleted below the oil, the aqueous supernatant solution, followed by the silicon oil/dibutyl phthalate mixture was aspirated, and the cell pellet underneath resuspended in 200 μl NaOH (0.5 M) and β-radioactivity measured by liquid scintillation counting in a Beckman LS 6500 Multi-Purpose Scintillation Counter (Beckman Coulter). […] Where indicated, the sodium free buffer was prepared using TMACl as described in Baird et al.[35] Data are expressed as molecules radiotracer per cell per minute. […] All other chemicals were obtained from Sigma.

[4] = biological target: T1, System L transporter SLC7A5; assay: Flow cytometry kynurenine uptake assay (450 nm fluorescence) in T cells; type: cell-based; conditions: for IC50: 37 °C; for IC50 / effect on kynurenine transport (450 nm fluorescence): 4 min; for effect on kynurenine transport ex vivo: D7 rLM-infected CD8+ T cells; for effect on kynurenine transport ex vivo / effect on kynurenine transport (450 nm fluorescence): BCH 10 mM, Leu 5 mM, Lys 5 mM; for effect on kynurenine transport (450 nm fluorescence): TCR-stimulated CD8+ T cells or CTLs
From the text: For cell surface staining, antibodies conjugated to FITC, PE, APC, Alexafluor 647 (A647), APC-efluor780 (APCe780), and PerCPCy5.5 were obtained from either BD Pharmingen, eBioscience or Biolegend. Fc receptors were blocked using Fc Block (BD Pharmingen). Antibody clones used were: CD4 (RM4-5), CD8a (53-6.7), TCRβ (H57-597), CD44 (IM7), CD45.1 (A20), CD45.2 (104) and CD98 (RC388). Cells were fixed using 1% paraformaldehyde. Standard intracellular cytokine staining protocols were followed for IFNγ (clone XMG1.2; Biolegend) staining. Data were acquired on a LSR Fortessa II with DIVA software or a FACSVerse flow cytometer with FACSuite software (BD Biosciences) and analysed using FlowJo software version 9.9.5 (TreeStar).
Start with at least 1 × 10^6 cells per condition, to obtain at least 200,000 events analysed by flow cytometry at the end of the protocol. […] If required, surface cell antibody staining should be performed prior to uptake assay protocol. This may be performed at room temperature or 4 °C, however test samples must be warmed to 37 °C, e.g. in water bath, prior to kynurenine uptake. (As with all multi-parameter flow cytometry, appropriate antibody staining controls must also be performed.) Samples can be fixed immediately after uptake assay by addition of 4% (vol/vol) paraformaldehyde (PFA; to a final concentration of 1%) for 30 min at room temperature.
For kynurenine uptake assay; pre-warm kynurenine (800 μM, in HBSS), BCH (40 mM, in HBSS) and lysine (20 mM, HBSS) and HBSS to 37 °C. After surface antibody staining of samples, resuspend cells in 200 μl warmed HBSS (1–5 × 10^6 cells in FACS tubes, or scale accordingly into plates). Keep cells in water bath at 37 °C. Add 100 μl of HBSS, or BCH or lysine to appropriate samples. Add 100 μl HBSS to no kynurenine controls (final volume 400 μl). Finally, add 100 μl kynurenine to appropriate samples. Stop uptake after 4 min by adding 125 μl 4% PFA for 30 min at room temperature, in the dark. The final concentrations for uptake assay are: 200 μM kynurenine; +/-10 mM BCH; +/-5 mM lysine. After fixation, wash cells twice in PBS/0.5% BSA and resuspend in PBS/0.5% BSA prior to acquisition on flow cytometer. The 405 nm laser and 450/50 BP filter are used for kynurenine fluorescence detection.
To monitor kynurenine uptake in live cells, acquire data on flow cytometer immediately following addition of kynurenine and plot fluorescence against time.

[5] = system: mTORC1; assay: mTORC1 activity in CTLs after leucine removal and refeeding; type: cell-based, mouse; conditions: CTLs removed from leucine, refed leucine 100uM ± Kyn 100uM
From the text: page 13: • We […] would not be able to measure the levels of in vivo ky nurenine uptake with this assay (for the reasons explained above). However, this is a pertinent question, and will relate to the total amount of available kynurenine compared to alternative System L substrates. The detailed micro-environmental metabolomics techniques required to perform this kind of analysis is beyond the scope of this paper, however we have tried to address this point in the discussion. Second, did CD4 T cells (Foxp3-) and Tregs (Foxp3+) from Lm-infected mice also i mport Ky n? […] This, also, is a very interesting aspect, however we feel that it is beyond the scope of this paper. Point 4: Data presented in Figures 4 & 5 show convincingly that SLC7A5 ablation in CD4 T cells abolishes Kyn uptake in CD4 T cells selectively and that imported Kyn triggers AhR signaling in CD4 T cells, respectively. However, no data is presented to address the biological significance of these findings, specifically regarding the reported ability of Kyn to suppress Th1 responses (e.g. IFNg production) or to reinforce Treg-mediated suppression of effector T cells via AhR signaling. […]

Compound: Clc1cc2c(cc1Cl)Oc1cc(Cl)c(Cl)cc1O2 [TCDD, 2,3,7,8-tetrachlorodibenzo-p-dioxin]
concentrations needed to activate the AHR [1]: pM/nM range

Compound: CC(C)C[C@H](N)C(=O)O [leucine]
IC50 ([4]; CTL): 411 ± 30 µM
IC50 ([4]; D7 rLM CD8+ effector T cells from spleen, ex vivo): 168 ± 38 µM
effect on kynurenine transport ex vivo [4]: blocked
effect on kynurenine transport (450 nm fluorescence) [4]: blocks kynurenine transport to comparable levels as BCH
effect on mTORC1 activity [5]: establishes mTORC1 activity
Km of other System L substrates relative to Km of kynurenine [3]: ~ 10 fold less

Compound: Cc1ccccc1N=Nc1ccc(NC(=O)c2ccnn2C)c(C)c1 [CH223191]
effect on kynurenine-induced Cyp1A1 mRNA ([2]; D3 TH17cond cells, kynurenine 10 μM 2 h, CH223191 30 μM): completely blocked

More lines, main results first:

Cyp1a1 mRNA induction, D3 versus D5 post activation ([2]; TH17cond CD4+ T cells, kynurenine 100 μM or FICZ 300 nM, 2 h): equivalent on D3 and D5
Compound: O=Cc1c2[nH]c3ccccc3c2cc2[nH]c3ccccc3c12 [FICZ, 6-formylindolo[3,2-b]carbazole]
concentrations needed to activate the AHR [1]: pM/nM range

Km of other System L substrates relative to Km of kynurenine [3]: ~ 10 fold less
Compound: CSCC[C@H](N)C(=O)O [methionine]

Km of other System L substrates relative to Km of kynurenine [3]: ~ 10 fold less
Compound: N[C@@H](Cc1c[nH]c2ccccc12)C(=O)O [tryptophan]

effect on kynurenine uptake ([4]; CD3/CD28 activated wild-type T cells in co-culture, 5 mM lysine, BCH): did not inhibit kynurenine uptake
effect on kynurenine transport ex vivo [4]: not by lysine competition
effect on kynurenine transport (450 nm fluorescence) [4]: does not affect kynurenine transport
Compound: NCCCC[C@H](N)C(=O)O [lysine]
